Measurements taken from patent publication US9845471B2, “Compositions and methods for treating pancreatic cancer” (Fred Hutchinson Cancer Research Center, priority 2013, dated 2017).

What was measured:
Runx3 [1] = test: Runx3 immunoblot after histone deacetylase inhibitor treatment; type: cell-based, murine; conditions: KPD carcinoma cells; TSA at 0, 10, or 40 μM; 48 hours of treatment
Method: To directly test of this potential involvement of Hdac5 in the post-translational control mechanism of Runx3, a histone deacetylase inhibitor was used to determine whether Runx3 levels increased when deacetylation of Runx3 by Hdac5 was minimized or abrogated (i.e., whether the acetylation level of Runx3 does in fact affect physiologic degradation). Briefly, cells (4×10^5) were plated in 60 cc dishes and trichostatin A (TSA) (Tocris Biosciences, MO, USA), an Hdac5 inhibitor, was added at 0, 10, or 40 μM at 24 hours. Total RNA or whole cell lysates were prepared as described herein after 48 hours of treatment, and the latter resolved on 4-12% Bis-Tris gels, transferred to PVDF and probed with Runx3 antibody.

CFPAC-1 cells = test: Scratch wound migration assay, CFPAC-1; type: cell-based, human; conditions: CFPAC1 cells
Method: (§1) In addition to examining EMT, carcinoma cells were examined for their ability to migrate. For migration assays, cells were first incubated in the presence or absence of TGFβ (5 ng/ml) for 60 hours to achieve growth arrest (in order to separate out effects of proliferation rather than migration; see Izeradjene et al., 2007), then serum starved for 8 hours. Confluent cultures were scratched with a 20 μl pipette tip to generate a wound in three horizontal stripes per well; each experimental condition was performed in triplicate wells. All experiments were conducted in triplicate at least 3 independent times on at least 2 different cell lines from each genetic background. A minimum of six points across each wound were assessed independently by two investigators at the indicated time intervals for the presence of cells within the expanse. Representative photographs were taken from a minimum of 6-8 separate high power fields. For all assays, media was replaced every 24 hours with or without TGFβ and photographed every 24 hours.
(§2) As an initial analysis, the human pancreas cancer cell lines were tested in the scratch wound migration assay described herein. The basal levels of RUNX3 in these human PDA cell lines correlated with their migratory potential, as MiaPaCa-2 cells migrated far less well than CFPAC-1 and Panc-1 cells (FIG. 9B). […]

Panc-1 cells [2] = test: Scratch wound migration assay, Panc-1; type: cell-based, human
Method: as §1, §2

MiaPaCa-2 cells = test: Scratch wound migration assay, MiaPaCa-2; type: cell-based, human; conditions: TGFβ
Method: as §1, §2

[3] = tested on: KP primary carcinoma cells; test: Scratch wound migration assay, KP; type: cell-based, murine
Method: as §1, with “For all assays, media was replaced every 24 hours with or without TGFβ and photographed every 24 hours.” left out
(§3) Dpc4 expression was knocked down using a short hairpin RNA (shRNA) sequence (GAUUAACACUGCAGAGUAA, SEQ ID NO.: 19) targeting murine DPC4 procured in a pGIPZ vector (Open Biosystems). […] DPC4 transcript levels in murine cell lines were analyzed by qRT-PCR using the Taq-man assay per the manufacturer's recommendations (Applied Biosystems, CA, USA) with GAPHD as an internal control.

[4] = tested on: KPD primary carcinoma cells; test: Scratch wound migration assay, KPD; type: cell-based, murine
Method: as §1, with “For all assays, media was replaced every 24 hours with or without TGFβ and photographed every 24 hours.” left out
as §3

KP PDA cells = test: EMT immunofluorescence (actin stress fibers, E-cadherin), KP; type: cell-based, murine
KPD PDA cells = test: EMT immunofluorescence (actin stress fibers, E-cadherin), KPD; type: cell-based, murine
Method: First, KPD pancreas cancer cells were probed by immunofluorescence for their ability to undergo epithelial-to-mesenchymal transition (EMT), a program of morphological and molecular changes implicated in the metastatic phenotype. Briefly, cells were grown on glass cover slips and treated for 72 hours in the presence or absence of TGFβ (5 ng/ml); media was replaced every 24 hours. For E-cadherin immunofluorescence, cells were fixed in ice cold methanol:acetone (1:1) for 15 minutes. For F-actin IF, cells were fixed in 4% paraformaldehyde for 30 minutes at RT followed by brief rinse in 0.15M glycine to quench the PFA. After fixation, the cells were washed with PBS and blocked for 1 hour at RT with 2% fatty acid-free BSA/2.5% goat serum. Cells were incubated with E-cadherin primary antibody (1:200, BD Biosciences) or Alexafluor488 F-actin (1:1000) for 1 hour at RT. Alexafluor 488 secondary antibody was used to visualize E-cadherin antibody. Cells were counterstained with DAPI and the slips mounted with Prolong Gold Anti-fade (Invitrogen, CA, USA). Images were acquired using a Nikon Eclipse 80i microscope with NIS Elements Software (Nikon, v3.1).

KPD cells [5] = test: Cell proliferation assay; type: cell-based, murine; conditions: TGFβ 5 ng/ml
Method: For immunocytochemistry, the primary antibody used was Ki-67 (1:25, Dako, Calif., USA), which is a marker of proliferating cells. For cell proliferation assays, equal numbers of murine or human cells (30,000) were plated in triplicate for each cell line and incubated in the presence or absence of TGFβ (5 ng/ml, R&D Systems, USA). Cells were counted manually at 24 hour intervals. Data points represent the mean±SEM of triplicate determinations from at least 3 independent experiments. All experiments were conducted in triplicate at least 3 independent times on at least 2 different cell lines from each genetic background. Representative photographs were taken from a minimum of 6-8 separate high power fields. For all assays, media was replaced every 24 hours with or without TGFβ and photographed every 24 hours.

[6] = tested on: Runx3 complexes with Smad2 and Smad4; test: Smad2 immunoprecipitation of Runx3 complexes, KP; type: cell-based, murine; conditions: KP cells, incubated with TGFβ prior to lysis
Method: (§4) To examine whether the transcriptional activity of Runx3 was exercised in complex with Smad4/Dpc4, immunoprecipitation assays were performed. Briefly, cells were lysed by sonication in 20 mM HEPES (pH 7.5), 400 mM KCl, 5% Glycerol, 5 mM EDTA, 0.4% Np40, supplemented with 1×protease inhibitor (Sigma, MO, USA), phosphotase inhibitor cocktails I and II (Sigma, MO, USA), and the lysates cleared by centrifugation. Extracts were diluted to 20 mM HEPES (pH 7.8), 50 mM KCl, 5% Glycerol, 2.5 mM MgCl2, 0.05% NP40 and incubated with Smad2 antibody (2.5 μg/ml from AbCam, Cambridge Mass., USA) and Protein A-Sepharose beads for 4 hours at 4° C. Beads were washed and co-purified proteins liberated in boiling Laemmli buffer and analyzed by immunoblot with the appropriate primary antibody. ExactaCruz secondary antibodies (Santa Cruz biotechnology) were used to reduce background from IgG.

[7] = tested on: Runx3 complexes with Smad2 and Smad4; test: Smad2 immunoprecipitation of Runx3 complexes, KPD; type: cell-based, murine; conditions: KPD cells, incubated with TGFβ prior to lysis
Method: as §4

KP cells = test: Tail vein pulmonary metastasis assay in nude mice, KP cells; type: in vivo, nude mice (Athymic NCr-nu/nu); conditions: KP cells with Dpc4 extinguished, tail vein injection
Method: (§5) Purified KP and KPD carcinoma cells were also injected into the circulation of immunocompromised mice and scored for their ability to form pulmonary metastases. Briefly, murine cells were studied in a classical tail vein metastasis assay in nude mice (Athymic NCr-nu/nu). At least 3 animals were injected (1×10^5 or 1×10^6 cells/injection, depending on the experiment) for each independently derived cell line and all experiments were performed at least twice. […] Metastatic disease burdens were assessed as a ratio of cross-sectional area occupied by tumor to whole lung area using ImageJ software (NIH).
as §3, with “Biosystems). A control sequence (scrambled, scr) was used as a negative control. High-titer lentivirus was made and PDA cells were infected and selected for stable expression of the DPC4-specific shRNA. Knockdown was confirmed by qRT-PCR.” for “Biosystems).”

KPD cells [8] = test: Tail vein pulmonary metastasis assay in nude mice, KPD cells; type: in vivo, nude mice (Athymic NCr-nu/nu); conditions: KPD cells with complete knockdown of Dpc4, tail vein injection
Method: as §5
as §3, with “Biosystems). A control sequence (scrambled, scr) was used as a negative control. High-titer lentivirus was made and PDA cells were infected and selected for stable expression of the DPC4-specific shRNA. Knockdown was confirmed by qRT-PCR.” for “Biosystems).”

Runx3 [9] = test: Runx3 immunoblot after targeted depletion of Smad4; type: cell-based, murine; conditions: KPD cells; converse of the increase seen with Smad4 over-expression
Method: For immunoblot analysis, whole cell lysates were prepared using 1×RIPA buffer (Millipore, CA, USA) supplemented with 1×protease inhibitor (Sigma, MO, USA) and phosphotase inhibitor cocktails I and II (Sigma, MO, USA). For immunoblot experiments, 20 μg (murine) or 30 μg (human) whole cell protein lysate were separated on a 4-12% Bis-tris gel system (Invitrogen, CA, USA) and transferred to PVDF membrane (Millipore, CA, USA). Primary antibodies used were Dpc4, p16, p19, Actin (all at 1:2000, Santa Cruz, Calif., USA), and p53 (1:1000, Vector Lab, CA, USA).
Dpc4 expression was knocked down using a short hairpin RNA (shRNA) sequence (GAUUAACACUGCAGAGUAA, SEQ ID NO.: 19) targeting murine DPC4 procured in a pGIPZ vector (Open Biosystems). A control sequence (scrambled, scr) was used as a negative control. High-titer lentivirus was made and PDA cells were infected and selected for stable expression of the DPC4-specific shRNA. Knockdown was confirmed by qRT-PCR. Briefly, total RNA was reverse transcribed using the high capacity cDNA synthesis kit (Applied Biosystems, CA, USA) and qRT-PCR performed using SYBER green supermix (Bio-Rad, VA, USA) on a CFX-96 thermal cycler. […] DPC4 transcript levels in murine cell lines were analyzed by qRT-PCR using the Taq-man assay per the manufacturer's recommendations (Applied Biosystems, CA, USA) with GAPHD as an internal control.

Panc-1 cells [10] = test: Pulmonary metastasis assay in NOD/SCID mice; type: in vivo
Method: as §5
(§6) Human RUNX3 was cloned into pBABE hygromycin vector and stable RUNX3 expressing HEK293T cells were prepared using a similar protocol to that used to make the murine version. Also, shRNA sequences targeting human RUNX3 to knock down expression were procured in pGIPZ vectors (Open Biosystems). High-titer lentivirus was made and PDA cells were infected and selected for stable expression of the […] shRNA (SEQ ID NO.: 20, CGGCAGAAGCUGGAGGACC). Knockdown was confirmed by qRT-PCR.
To determine whether overexpression of RUNX3 in human PDA cells also promotes metastasis, pulmonary metastasis assays were performed using NOD/SCID mice.

COL6A1 = COL6A1 expression by qRT-PCR; type: cell-based, human; conditions: shRUNX3 transfected Panc-1 cells vs scrambled
Method: as §6
Transcript levels in Runx3-overexpressing carcinoma cells were determined using qRT-PCR as described herein. The Spp1 mouse forward and reverse primers used were SEQ ID NO.:5 ([…]) and SEQ ID NO.:6 ([…]), respectively; the Col6A1 mouse forward and reverse primers were SEQ ID NO.:7 (CTGCTGCTACAAGCCTGCT) and SEQ ID NO.:8 (CTGCTGCTACAAGCCTGCT), respectively; and the COL6A1 human forward and reverse primers were SEQ ID NO.:9 ([…]) and SEQ ID NO.:10 ([…]), respectively.

CC(/C=C/C(=O)NO)=C\[C@@H](C)C(=O)c1ccc(N(C)C)cc1 [TSA, trichostatin A]
levels of Runx3 (immunoblot) (Runx3 [1]): raise levels of Runx3 to approximately those found in KP cells

TGFβ
migration (CFPAC-1 cells; TGFβ): promoted or left unaffected | migration (Panc-1 cells [2]; TGFβ): promoted or left unaffected | migration (MiaPaCa-2 cells): modestly inhibited the migration | migration ([3]; TGFβ 5 ng/ml): stimulated | migration ([4]; TGFβ 5 ng/ml): did not respond in kind | EMT (KP PDA cells; TGFβ 5 ng/ml, 72 hours): readily underwent TGFβ-induced EMT | EMT (actin stress fibers, surface E-cadherin) (KPD PDA cells; KPD PDA cells, TGFβ 5 ng/ml, 72 hours): EMT is essentially intact | growth arrest (proliferation) (KPD cells [5]): only partially growth-arrested | Runx3/Smad2/Smad4 complex formation [6]: favor complex formation | Runx3/Smad2/Smad4 complex formation [7]: inhibit it

shDpc4: short hairpin RNA (GAUUAACACUGCAGAGUAA, SEQ ID NO.: 19) targeting murine DPC4 in a pGIPZ vector
migration ([3]; Dpc4 depleted by shRNA): migration increased slightly | basal migratory behavior ([4]; complete ablation of Dpc4 expression by shRNA): increased their basal migratory behavior modestly | metastatic potential (KP cells): did not diminish their already considerable metastatic potential | metastatic potential (KPD cells [8]): enhanced their metastatic potential | Runx3 levels (immunoblot) (Runx3 [9]): had the converse effect | EMT in response to TGFβ (KP PDA cells; late ablation of Dpc4 by shRNA): did not completely prevent EMT | EMT in response to TGFβ (KPD PDA cells; KPD carcinoma cells, complete loss of Dpc4 expression by shRNA): some morphological features of EMT in response to TGFβ also persisted

shRUNX3: shRNA targeting human RUNX3 (SEQ ID NO.: 20, CGGCAGAAGCUGGAGGACC) in pGIPZ vector, delivered by lentivirus
migration (CFPAC-1 cells; stable RUNX3-specific shRNA): inhibited their migration | migration (Panc-1 cells [2]; stable RUNX3-specific shRNA): inhibited their migration | liver weights (Panc-1 cells [10]; NOD/SCID mice injected with RUNX3 knockdown Panc-1 cells, n=3): 0.53 ± 0.06 g | ability to seed and support secondary metastases to the liver (Panc-1 cells [10]; RUNX3-depleted Panc-1 cells in NOD/SCID mice): considerably decreased | number of lung metastases (Panc-1 cells [10]; RUNX3-knockdown vs control Panc-1 cells in NOD/SCID mice): comparable number of lung metastases | COL6A1 transcript levels (COL6A1): reduces COL6A1 transcript levels
